These results are taken from article PMC10303271, “Synthesis and Receptor Binding Studies of α5 GABAAR Selective Novel Imidazodiazepines Targeted for Psychiatric and Cognitive Disorders” (Molecules, 2023).

Where two headings read alike, the source gives them in different places.

As usually defined, the Ki is the dissociation constant of the complex between target and ligand, obtained from inhibition or displacement.

Assay [1] deals with peripheral benzodiazepine receptors (PBR) (Rattus norvegicus, UniProt P16257). The assay can be described thus: PDSP radioligand binding at PBR. The text has this:
The compounds were also screened at PDSP to determine any binding with peripheral benzodiazepine receptors (PBR). A number of biological processes are associated with PBR. The most prevalent are transportation of anions for mitochondrial transmembrane potential, biosynthesis of heme, regulation of neurological damage, proliferation, cell death (apoptosis), as well as regulation of steroidogenesis. The test compounds were screened in the primary binding assay to determine the % inhibition at PBR. […] These compounds were then subjected to a secondary screening to determine the Ki (nM) value for PBR receptors.
(§1) The NIMH PDSP assay protocol book [https://kidbdev.med.unc.edu/databases/PDSP%20Protocols%20II%202013-03-28.pdf accessed on 23 April 2023]. describes the protocols for primary and secondary radio-ligand binding assays. These assays were carried out in a final volume of 125 µL per well in the appropriate binding buffer.
(§2) The binding of a ligand to a receptor, ion channel, or transporter was determined in the […] of 10 µM of the appropriate reference compound. […] Plates were incubated in the dark for 90 min at rt, and the reactions were stopped by vacuum filtration onto 0.3% polyethyleneimine (PEI) soaked 96-well filter mats using a 96-well Filtermateharvester. This was followed by three washes with cold PBS buffer. Radioactivity was then counted on a Microbeta counter. Nonlinear regression was used to analyze the data with N = 6 replicates.

Assay [2] has as its target kappa opioid receptors (KOR) (Homo sapiens, UniProt P41145). Briefly: PDSP radioligand binding at KOR. The conditions noted are these: for inhibition at 10 µM: 1.5 h.
From the text: Opioid receptors are a family of inhibitory G-coupled protein receptors where opioids act as the ligand. The kappa opioid receptors (KOR), µ and δ opioid receptors (MOR and DOR), and nociception opioid receptor (NOP) fall under the family of opioids receptors. It has been reported that oxadiazole imidazodiazepines can mediate analgesic and anti-inflammatory properties mediated also by the κ opioid receptor (KOR). The binding at KOR is usually silent. The affinities of the test compounds for KOR, DOR, and MOR were determined using radioligand binding assays at a screening concentration of 10,000 nM in collaboration with the National Institute of Mental Health’s Psychoactive Drug Screening Program (PDSP), as mentioned before. Concentration-dependent experiments were conducted to determine Ki values for the compounds that exceeded more than 50% radioligand displacement in primary binding assays.
as §1, §2

The next assay relates to Ca channel human. The assay can be described thus: PDSP primary binding Ca channel. The conditions noted are these: primary binding, 10,000 nM; last figure of the line = mean of the 4 before it. Here is the method:
(§3) To determine if any off-target receptor-binding effects are present, all the novel ligands were sent to the National Institute of Mental Health (NIMH), Psychoactive Drug Screening Program (PDSP). The ligands were screened over a panel of 47 receptors, ion channels, and transporters to determine any other possible interactions with […]. The hERG-binding was also determined. […] No binding of the test compounds to calcium channels was observed. […] It is necessary to screen the compounds for hERG-binding during the early process of drug discovery. The unintentional binding of many drugs to hERG can cause blockade of hERG K+ channels in the heart, which can cause many side effects including cardiac arrhythmias and sudden death. […] All of the α5 imidazodiazepines were tested for hERG-binding.
as §1, §2

For the next assay, the target named is T1, 5-HT1D (Homo sapiens, UniProt P28221).
T1 construct: purchased NIMH Psychoactive Drug Screening Program (PDSP)
T1 sequence (P28221 whole entry): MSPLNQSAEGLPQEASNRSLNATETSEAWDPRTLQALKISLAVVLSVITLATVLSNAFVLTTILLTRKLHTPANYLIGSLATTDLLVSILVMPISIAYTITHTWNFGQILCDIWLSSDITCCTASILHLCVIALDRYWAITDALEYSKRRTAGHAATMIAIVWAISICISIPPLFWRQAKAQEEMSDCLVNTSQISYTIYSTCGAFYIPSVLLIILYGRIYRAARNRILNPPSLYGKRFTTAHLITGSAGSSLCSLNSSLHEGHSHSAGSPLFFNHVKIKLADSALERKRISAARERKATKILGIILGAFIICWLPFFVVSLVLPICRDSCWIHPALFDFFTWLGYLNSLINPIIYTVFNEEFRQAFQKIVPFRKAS
Briefly: PDSP primary binding 5-HT1D. The conditions noted are these: 1.5 h; primary binding, 10,000 nM; last figure of the line = mean of the 4 before it; read-out: 5-HT1D, PDSP raw data, mean. Here is the method:
as §3, §1, §2

The next assay deals with T2, D1 (Homo sapiens, UniProt P21728).
T2 construct: purchased NIMH Psychoactive Drug Screening Program (PDSP)
T2 sequence (P21728 whole entry): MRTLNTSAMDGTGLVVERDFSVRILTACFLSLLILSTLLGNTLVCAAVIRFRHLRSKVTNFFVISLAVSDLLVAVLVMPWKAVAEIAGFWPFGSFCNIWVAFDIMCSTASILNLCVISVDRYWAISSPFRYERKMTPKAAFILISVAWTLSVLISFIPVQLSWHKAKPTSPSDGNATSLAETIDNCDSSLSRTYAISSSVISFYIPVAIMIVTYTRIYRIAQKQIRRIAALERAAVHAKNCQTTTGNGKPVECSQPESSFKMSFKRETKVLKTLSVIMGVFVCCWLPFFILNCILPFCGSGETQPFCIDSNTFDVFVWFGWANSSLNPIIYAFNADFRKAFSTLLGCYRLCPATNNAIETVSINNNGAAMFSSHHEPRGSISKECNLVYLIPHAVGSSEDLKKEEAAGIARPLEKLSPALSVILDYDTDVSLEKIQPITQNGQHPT
The assay can be described thus: PDSP primary binding D1. The conditions noted are these: 1.5 h; primary binding, 10,000 nM; last figure of the line = mean of the 4 before it; read-out: D1, PDSP raw data, mean. Here is the method:
as §3, §1, §2

For a further assay, the target named is T3, D4 (Homo sapiens, UniProt P21917).
T3 construct: purchased NIMH Psychoactive Drug Screening Program (PDSP)
T3 sequence (P21917 1-419): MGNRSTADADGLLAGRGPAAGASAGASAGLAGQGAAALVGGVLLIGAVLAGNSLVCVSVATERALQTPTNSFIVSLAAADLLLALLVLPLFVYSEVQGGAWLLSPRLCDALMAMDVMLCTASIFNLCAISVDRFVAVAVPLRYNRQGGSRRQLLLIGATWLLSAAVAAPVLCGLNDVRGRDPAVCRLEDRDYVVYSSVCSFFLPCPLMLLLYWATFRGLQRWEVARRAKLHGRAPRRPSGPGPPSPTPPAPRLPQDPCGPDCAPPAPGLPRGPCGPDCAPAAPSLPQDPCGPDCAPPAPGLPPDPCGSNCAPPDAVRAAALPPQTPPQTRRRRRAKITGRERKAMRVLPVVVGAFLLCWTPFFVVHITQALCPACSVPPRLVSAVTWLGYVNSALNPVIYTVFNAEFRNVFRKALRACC
The assay can be described thus: PDSP primary binding D4. The conditions noted are these: 1.5 h; primary binding, 10,000 nM; last figure of the line = mean of the 4 before it; read-out: D4, PDSP raw data, mean. Here is the method:
as §3, §1, §2

A further assay addresses T4, Alpha2Beta4 (Rattus norvegicus, UniProt P12389+P12392).
T4 construct: purchased NIMH Psychoactive Drug Screening Program (PDSP)
The assay can be described thus: PDSP primary binding Alpha2Beta4. The conditions noted are these: primary binding, 10,000 nM; last figure of the line = mean of the 4 before it; read-out: Alpha2Beta4, PDSP raw data, mean. Here is the method:
as §3, §1, §2

The next assay deals with T5, V1A (Homo sapiens, UniProt P37288).
T5 construct: purchased NIMH Psychoactive Drug Screening Program (PDSP)
T5 sequence (P37288 whole entry): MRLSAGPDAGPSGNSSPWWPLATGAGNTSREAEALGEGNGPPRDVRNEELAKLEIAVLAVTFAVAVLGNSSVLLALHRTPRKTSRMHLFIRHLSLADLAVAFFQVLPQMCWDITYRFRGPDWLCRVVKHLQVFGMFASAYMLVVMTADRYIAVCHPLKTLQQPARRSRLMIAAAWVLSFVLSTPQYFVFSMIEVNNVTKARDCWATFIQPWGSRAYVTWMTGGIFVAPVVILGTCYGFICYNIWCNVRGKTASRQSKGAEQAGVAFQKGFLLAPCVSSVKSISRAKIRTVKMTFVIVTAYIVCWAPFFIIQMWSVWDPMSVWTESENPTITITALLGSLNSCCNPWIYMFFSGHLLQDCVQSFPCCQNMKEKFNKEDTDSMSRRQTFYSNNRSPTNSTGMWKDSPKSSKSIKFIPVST
The assay can be described thus: PDSP primary binding V1A. The conditions noted are these: primary binding, 10,000 nM; last figure of the line = mean of the 4 before it; read-out: V1A, PDSP raw data, mean. Here is the method: as §3, §1, §2

Setting [3] is: 1.5 h, primary binding, 10,000 nM, last figure of the line = mean of the 4 before it, some tables list PBR twice, read-out: PBR, PDSP raw data, mean.
Where [4] appears, read: at 10,000 nM, N = 5, read-out: Binding Affinity at PBR % Inhibition (Primary).
The mark [5] stands for this setting: primary binding, 10,000 nM, last figure of the line = mean of the 4 before it, read-out: KOR, PDSP raw data, mean.
[6] abbreviates: at 10,000 nM, N = 5, [3H]-U69593 0.83 nM, read-out: Primary Binding %KOR.

peripheral benzodiazepine receptors (PBR), sequence (P16257 whole entry): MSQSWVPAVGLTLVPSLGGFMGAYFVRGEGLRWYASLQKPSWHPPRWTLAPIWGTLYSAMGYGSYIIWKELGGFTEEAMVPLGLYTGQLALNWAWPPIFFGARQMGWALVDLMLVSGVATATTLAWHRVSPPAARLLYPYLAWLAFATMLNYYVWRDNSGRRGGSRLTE
T4 sequence (P12389 28-511): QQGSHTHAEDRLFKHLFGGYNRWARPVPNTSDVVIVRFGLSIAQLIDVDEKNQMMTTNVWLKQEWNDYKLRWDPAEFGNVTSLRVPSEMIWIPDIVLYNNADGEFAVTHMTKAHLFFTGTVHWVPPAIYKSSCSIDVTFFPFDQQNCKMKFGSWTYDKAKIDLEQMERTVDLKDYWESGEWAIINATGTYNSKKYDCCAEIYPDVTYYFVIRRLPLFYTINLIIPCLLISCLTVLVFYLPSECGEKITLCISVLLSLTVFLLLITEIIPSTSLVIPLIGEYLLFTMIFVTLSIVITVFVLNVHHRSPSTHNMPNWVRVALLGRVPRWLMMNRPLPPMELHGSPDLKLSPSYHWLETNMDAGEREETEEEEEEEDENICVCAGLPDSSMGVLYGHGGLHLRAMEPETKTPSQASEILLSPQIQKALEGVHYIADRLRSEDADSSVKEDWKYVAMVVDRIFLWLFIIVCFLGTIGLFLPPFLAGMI
T4 sequence (P12392 21-495): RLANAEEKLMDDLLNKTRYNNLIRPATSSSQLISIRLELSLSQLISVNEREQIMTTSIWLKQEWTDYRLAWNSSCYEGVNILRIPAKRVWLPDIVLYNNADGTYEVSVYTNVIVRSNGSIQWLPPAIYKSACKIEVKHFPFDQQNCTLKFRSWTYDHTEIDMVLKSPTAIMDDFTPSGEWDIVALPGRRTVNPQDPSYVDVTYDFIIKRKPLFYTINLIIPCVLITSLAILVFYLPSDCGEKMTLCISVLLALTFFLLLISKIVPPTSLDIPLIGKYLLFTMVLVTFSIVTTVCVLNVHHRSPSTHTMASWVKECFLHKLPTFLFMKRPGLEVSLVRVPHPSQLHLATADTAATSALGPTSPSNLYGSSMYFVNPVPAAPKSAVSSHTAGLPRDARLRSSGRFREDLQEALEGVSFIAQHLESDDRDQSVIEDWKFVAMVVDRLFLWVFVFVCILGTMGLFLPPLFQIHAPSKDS
kappa opioid receptors (KOR), sequence (P41145 whole entry): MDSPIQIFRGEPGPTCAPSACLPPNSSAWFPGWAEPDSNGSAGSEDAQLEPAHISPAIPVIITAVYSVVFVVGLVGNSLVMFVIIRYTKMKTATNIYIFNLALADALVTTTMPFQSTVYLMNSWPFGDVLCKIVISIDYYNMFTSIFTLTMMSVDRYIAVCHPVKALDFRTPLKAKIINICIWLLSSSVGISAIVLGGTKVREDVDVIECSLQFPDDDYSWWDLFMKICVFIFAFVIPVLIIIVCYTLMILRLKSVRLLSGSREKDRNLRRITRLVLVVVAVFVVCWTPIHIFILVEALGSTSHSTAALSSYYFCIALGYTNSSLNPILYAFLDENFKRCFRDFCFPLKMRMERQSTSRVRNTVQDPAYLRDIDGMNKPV

`CCc1noc(-c2ncn3c2[C@@H](C)N=C(c2ccccc2F)c2cc(C4CC4)ccc2-3)n1` [Compound 46, (R)-5-(8-Cyclopropyl-6-(2′-fluorophenyl)-4-methyl-4H-benzo[f]imidazo[1,5-a][1,4]diazepin-3-yl)-3-ethyl-1,2,4-oxadiazole] showed an inhibition constant Ki in assay [1] of 627.3 ± 5.72 nM. Further, the inhibition at 10 µM in assay [1] (setting [3]) came to 86.4%; in assay [1] (setting [4]), 86.4 ± 6.35%; in assay [2] (setting [5]) it was 91.3%; on 5-HT1D, 17.7%; on D1, 74.6%; at D4 it was 10.6%. Also, the inhibition at 10 µM at Alpha2Beta4 is 6.41%; at V1A, -6.74%. Moreover, in the assay with Ca channel human, the “Ca channel human, PDSP raw data, mean” value is listed as 36.53%.
Take `C#Cc1ccc2c(c1)C(c1ccccc1Cl)=N[C@H](C)c1c(C(=O)N(C)CC)ncn1-2` [Compound 29]: the inhibition at 10 µM in assay [1] (setting [3]) was -10.9%; in assay [2] (setting [6]), 69.1 ± 29.1%; in assay [2] (setting [5]), 69.1%; on 5-HT1D, -13.1%; on D1, -31.5%; at D4, 1.36%. Besides, the inhibition at 10 µM on Alpha2Beta4 was found to be 3.06%; on V1A, 8.93%. Moreover, the affinity in assay [2], expressed as Ki, was 392 ± 78.8 nM. In addition, the “Ca channel human, PDSP raw data, mean” value in the assay with Ca channel human was 22.67%.
Turning to `C#Cc1ccc2c(c1)C(c1ccccn1)=N[C@@H](C)c1c(C(=O)NC)ncn1-2` [Compound 23, (S)-8-Ethynyl-N,4-dimethyl-6-(pyridin-2′-yl)-4H-benzo[f]imidazo[1,5-a][1,4]diazepine-3-carboxamide], the inhibition at 10 µM in assay [1] (setting [3]) is 34.9%; in assay [2] (setting [6]), 26.9 ± 6.21%; in assay [2] (setting [5]) it was 26.9%; at 5-HT1D it was -15.1%; at D1 it was -37.2%; on D4, 3.79%. Besides, the inhibition at 10 µM on Alpha2Beta4 came out at 4.5%; at V1A, 25.4%. Further, the “Ca channel human, PDSP raw data, mean” value in the assay with Ca channel human was found to be 14.91%.
Turning to `C#Cc1ccc2c(c1)C(c1ccccc1Cl)=N[C@H](C)c1c(C(=O)NC)ncn1-2` [Compound 21, (R)-6-(2′-Chlorophenyl)-8-ethynyl-N,4-dimethyl-4H-benzo[f]imidazo[1,5-a][1,4]diazepine-3-carboxamide], the inhibition at 10 µM was 5.68% in assay [1] (setting [3]); 69.6 ± 6.01% in assay [2] (setting [6]); 69.6% in assay [2] (setting [5]); -9.02% at 5-HT1D; 9.47% on D1; 2.12% at D4. Further, the inhibition at 10 µM on Alpha2Beta4 amounted to 7.67%; on V1A it was 35.1%. Also, in assay [2], the affinity, expressed as Ki, was 660 ± 159 nM. Further, the “Ca channel human, PDSP raw data, mean” value with Ca channel human came out at 9.85%.
With `CCc1noc(-c2ncn3c2[C@@H](C)N=C(c2ccccc2F)c2cc(-c4ccccc4)ccc2-3)n1` [Compound 35, (R)-3-Ethyl-5-(6-(2′-fluorophenyl)-4-methyl-8-phenyl-4H-benzo[f]imidazo[1,5-a][1,4]diazepin-3-yl)-1,2,4-oxadiazole], the inhibition at 10 µM was found to be 71.8% in assay [1] (setting [3]); 71.8 ± 10.5% in assay [1] (setting [4]); 38 ± 1.73% in assay [2] (setting [6]); 38% in assay [2] (setting [5]); 6.66% at 5-HT1D; 29.2% on D1. In addition, the inhibition at 10 µM is 6.05% at D4, 10.7% on Alpha2Beta4 and 3.9% on V1A. Further, in assay [1] (N = 2, read-out: Binding Affinity at PBR Ki (Secondary Screen)), the Ki came out at 1110 ± 24.5 nM. Also, the “Ca channel human, PDSP raw data, mean” value with Ca channel human worked out at 61.85%.
Consider `C#Cc1ccc2c(c1)C(c1ccccn1)=N[C@@H](C)c1c(C(=O)N(C)C)ncn1-2` [Compound 31, (S)-8-Ethynyl-N,N,4-trimethyl-6-(pyridin-2′-yl)-4H-benzo[f]imidazo[1,5-a][1,4]diazepine-3-carboxamide], for which the inhibition at 10 µM is 4.44% in assay [1] (setting [3]); -3.79 ± 4.99% in assay [2] (setting [6]); -3.79% in assay [2] (setting [5]); -15% at 5-HT1D; -41.5% at D1; -0.38% at D4. Also, the figures for the inhibition at 10 µM on Alpha2Beta4 and on V1A were 6.58% and 3.6%, respectively. For the same molecule, the “Ca channel human, PDSP raw data, mean” value with Ca channel human is on record as 4.19%.
In the case of `C#Cc1ccc2c(c1)C(c1ccccc1F)=N[C@H](C)c1c(C(=S)N(C)C)ncn1-2` [Compound 33, (R)-8-Ethynyl-6-(2′-fluorophenyl)-N,N,4-trimethyl-4H-benzo[f]imidazo[1,5-a][1,4]diazepine-3-carbothioamide], the values for the Ki in assay [1] and in assay [2] were 1710 nM and 400 ± 82 nM, respectively. For the same molecule, the inhibition at 10 µM was 22.3% in assay [1] (setting [3]); 66.4 ± 3.3% in assay [1] (setting [4]); 53.6 ± 7.24% in assay [2] (setting [6]); 53.6% in assay [2] (setting [5]); -3.41% on 5-HT1D; -35.4% on D1. The inhibition at 10 µM on D4 is -4.45%; at Alpha2Beta4, 4.82%; on V1A, 15.6%. The “Ca channel human, PDSP raw data, mean” value with Ca channel human came to 39.05%.
Turning to `C[C@H]1N=C(c2ccccc2F)c2cc(Cl)ccc2-n2cnc(-c3nc(C4CC4)no3)c21` [Compound 38, (R)-5-(8-Chloro-6-(2′-fluorophenyl)-4-methyl-4H-benzo[f]imidazo[1,5-a][1,4]diazepin-3-yl)-3-cyclopropyl-1,2,4-oxadiazole], the Ki in assay [1] turned out to be 617 ± 27.1 nM; in assay [2], 82.2 ± 2.43 nM. Further, the inhibition at 10 µM came out at 89.5% in assay [1] (setting [3]); 90 ± 2.13% in assay [1] (setting [4]); 98.9 ± 1.6% in assay [2] (setting [6]); 98.9% in assay [2] (setting [5]); 7.31% on 5-HT1D; 43% on D1. Besides, the inhibition at 10 µM is -3.44% on D4, 0.54% at Alpha2Beta4 and 4.3% on V1A. Further, in the assay on Ca channel human, the “Ca channel human, PDSP raw data, mean” value came out at 30.64%.
